Here are results for 19 compounds from paper PMC4008786, “Molecular Characterization, Expression Pattern, and Ligand-Binding Property of Three Odorant Binding Protein Genes from Dendrolimus tabulaeformis” (Journal of Chemical Ecology, 2014).

Where two headings read alike, the source gives them in different places.

The target in assay [1] is T1, DtabGOBP1 (Dendrolimus tabulaeformis, UniProt A0A059PCQ9). In words: Competitive fluorescence binding assay (displacement of 1-NPN), DtabGOBP1. The following applies: for abnormal fluorescence binding curve (in words): 1-NPN fluorescence on addition of ligand. The method, then:
(§1) Emission fluorescence spectra were performed on an F-4500 fluorescence Spectrophotometer (Hitachi, Japan) at 25 °C with a 1 cm light path quartz cuvette and 5 nm slits for both excitation and emission. The protein was dissolved in 50 mM Tris–HCl buffer, pH 7.4, while ligands used in the binding assay were added as 1 mM methanol solutions. The fluorescence of the mixture was recorded after 5 min to allow the signal to stabilize.
(§2) To measure the affinity of the fluorescent ligand 1-NPN to DtabPBP1, DtabGOBP1, and DtabGOBP2, a 2 μM solution of the protein in 50 mM Tris–HCl, pH 7.4, was titrated with aliquots of 1 mM 1-NPN dissolved in methanol to a final concentration of 16 μM. The probe was excited at 337 nm, and emission spectra were recorded between 380 and 450 nm. To evaluate the effect of pH on the binding affinity of the three OBPs, we also measured their binding with 1-NPN at a pH range of 4.5–9.0. The displacement of 1-NPN by selected ligands was measured in competitive binding assays using both the protein and 1-NPN at 2 μM. The mixtures were titrated with 1 mM methanol solutions of each competitor over concentration ranges of 2–16 μM. The fluorescence of the mixture was recorded after 5 min. Dissociation constants for 1-NPN and the stoichiometry of binding were obtained from Scatchard plots of the binding data through processing the data with Prism software. For other competitor ligands, the dissociation constants were calculated from the corresponding IC50 values using the equation: Ki = [IC50]/(1 + [1 − NPN]/K1 − NPN), where [1-NPN] is the free concentration of 1-NPN and K1-NPN is the dissociation constant of the protein complex/1-NPN.
(§3) To understand the ligand binding properties of the three OBPs, we prepared the recombinant proteins. Figure S5 reports the expression and purification of them. Then, we performed competitive ligand-binding experiments using well established protocols for other insect OBPs (Ban et al. [2002], [2003b]; Guo et al. [2012]; He et al. [2010]; Zhou et al. [2009]) to investigate the specificity of the binding pocket in the three D. tabulaeformis OBPs. The probe was excited at 337 nm, and emission spectra were recorded between 380 and 450 nm. […] The three proteins DtabPBP1, DtabGOBP1, and DtabGOBP2 bind 1-NPN with dissociation constants 12.5 ± 1.7, 14.4 ± 2.6, and 8.5 ± 0.6, respectively (Fig. 4a).

Assay [2] has as its target T2, DtabGOBP2 (Dendrolimus tabulaeformis, UniProt A0A059PCR0). Description: Competitive fluorescence binding assay (displacement of 1-NPN), DtabGOBP2. The method, then:
as §1, §2, §3

Assay [3] deals with T3, DtabPBP1 (Dendrolimus tabulaeformis, UniProt A0A059PCM8). Description: Competitive fluorescence binding assay (displacement of 1-NPN), DtabPBP1. The method, then:
as §1, §2, §3

The target of assay [4] is T1, DtabGOBP1. Description: Fluorescence titration of protein with 1-NPN (Scatchard plot), DtabGOBP1. It counts as binding. Here is the method: as §1
(§4) To measure the affinity of the fluorescent ligand 1-NPN to DtabPBP1, DtabGOBP1, and DtabGOBP2, a 2 μM solution of the protein in 50 mM Tris–HCl, pH 7.4, was titrated with aliquots of 1 mM 1-NPN dissolved in methanol to a final concentration of 16 μM. The probe was excited at 337 nm, and emission spectra were recorded between 380 and 450 nm. To evaluate the effect of pH on the binding affinity of the three OBPs, we also measured their binding with 1-NPN at a pH range of 4.5–9.0. The displacement of 1-NPN by selected ligands was measured in competitive binding assays using both the protein and 1-NPN at 2 μM. The mixtures were titrated with 1 mM methanol solutions of each competitor over concentration ranges of 2–16 μM. The fluorescence of the mixture was recorded after 5 min. […]
(§5) To understand the ligand binding properties of the three OBPs, we prepared the recombinant proteins. […] The probe was excited at 337 nm, and emission spectra were recorded between 380 and 450 nm. […]

In assay [5] the target is T2, DtabGOBP2. Description: Fluorescence titration of protein with 1-NPN (Scatchard plot), DtabGOBP2. It counts as binding. The method, then: as §1, §4, §5
Assay [6] addresses T3, DtabPBP1. Description: Fluorescence titration of protein with 1-NPN (Scatchard plot), DtabPBP1. It counts as binding. Here is the method:
as §1, §4, §5

Where [7] appears, read: DtabGOBP1, 1-NPN fluorescence at ligand max conc 16, protein and 1-NPN at 2 μM, pH 7.4, read-out: %of max±SE.
Where [8] appears, read: DtabGOBP2, 1-NPN fluorescence at ligand max conc 16, protein and 1-NPN at 2 μM, pH 7.4, read-out: %of max±SE.
[9] abbreviates: DtabPBP1, 1-NPN fluorescence at ligand max conc 16, protein and 1-NPN at 2 μM, pH 7.4, read-out: %of max±SE.
Where [10] appears, read: DtabGOBP1, 1-NPN fluorescence at ligand max conc 16, protein and 1-NPN at 2 μM, pH 7.4.
The mark [11] stands for this setting: DtabPBP1, 1-NPN fluorescence at ligand max conc 16, protein and 1-NPN at 2 μM, pH 7.4.
The mark [12] stands for this setting: DtabGOBP2, 1-NPN fluorescence at ligand max conc 16, protein and 1-NPN at 2 μM, pH 7.4.
The mark [13] stands for this setting: 2 μM protein, 50 mM Tris–HCl pH 7.4, Scatchard plot, read-out: dissociation constant (Kd) of 1-NPN.
The mark [14] stands for this setting: pH 4.5–9.0, protein and 1-NPN at 2 μM.

T1 sequence (A0A059PCQ9 entry or part of it): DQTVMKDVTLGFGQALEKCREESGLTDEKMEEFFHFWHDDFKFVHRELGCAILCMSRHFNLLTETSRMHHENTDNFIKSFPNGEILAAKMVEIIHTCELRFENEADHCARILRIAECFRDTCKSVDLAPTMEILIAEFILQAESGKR
T2 sequence (A0A059PCR0 entry or part of it): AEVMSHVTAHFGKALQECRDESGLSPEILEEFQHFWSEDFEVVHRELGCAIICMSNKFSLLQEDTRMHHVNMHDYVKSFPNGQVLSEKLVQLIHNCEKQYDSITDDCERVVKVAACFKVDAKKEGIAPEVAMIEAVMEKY
T3 sequence (A0A059PCM8 entry or part of it): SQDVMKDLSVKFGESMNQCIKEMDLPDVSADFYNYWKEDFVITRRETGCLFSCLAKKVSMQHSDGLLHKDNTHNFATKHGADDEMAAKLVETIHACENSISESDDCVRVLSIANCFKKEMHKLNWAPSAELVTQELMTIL

With `CCCC/C=C/C=C\CCCCOC(C)=O` [Z5,E7-12:OAc, (5Z,7E)-5,7-dodecadien-1-yl acetate], the activity at 16 µM in assay [1] (setting [7]) came out at 67.9 ± 1.1%; in assay [2] (setting [8]), 66.2 ± 0.3%; in assay [3] (setting [9]), 74.7 ± 1%.

On to `CCCCCC/C=C\CCCCOC(C)=O` [Z5-12:OAc, (Z)-5-dodecenyl acetate], for which the “%of max±SE” value in assay [1] (setting [10]) and in assay [3] (setting [11]) was “Abnormal” throughout. In assay [1] (DtabGOBP1), the “abnormal fluorescence binding curve (in words)” value is recorded as “increase in fluorescence at high concentrations”. Also, the activity at 16 µM in assay [2] (setting [8]) is 66.6 ± 0.7%.

On to (+)-α-pinene, for which the “%of max±SE” value in assay [1] (setting [10]) came to 98.3±2.2%; in assay [2] (setting [12]) it was 88.8±2.2%; in assay [3] (setting [11]), 83.9±0.3%.

As for `C=C1CCC2CC1C2(C)C` (stereo not drawn) [(-)-β-Pinene, (−)-β-pinene], the “%of max±SE” value is on record as 82.8±1.0% in assay [1] (setting [10]), 83.2±1.1% in assay [2] (setting [12]) and 80.7±0.5% in assay [3] (setting [11]).

As to (−)-limonene [(-)-Limonene], the “%of max±SE” value in assay [1] (setting [10]) amounted to 80.5±1.1%; in assay [2] (setting [12]), 94.1±0.8%; in assay [3] (setting [11]), 93.8±0.6%.

For `CCCCCC/C=C\CCCCO` [Z5-12:OH, (Z)-5-dodecenyl alcohol], the activity at 16 µM was found to be 77.2 ± 0.3% in assay [1] (setting [7]), 67 ± 0.5% in assay [2] (setting [8]) and 75.1 ± 0.2% in assay [3] (setting [9]).

With `C=C1C2CCC(C2)C1(C)C` (stereo not shown) [Camphene, camphene], the activity at 16 µM stood at 96.7 ± 1.2% in assay [1] (pH 7.4, read-out: %of max±SE); 93.8 ± 0.7% in assay [2] (pH 7.4, read-out: %of max±SE); 96.5 ± 0.2% in assay [3] (pH 7.4, read-out: %of max±SE).

As for `c1ccc(Nc2cccc3ccccc23)cc1` [1-NPN], the Kd in assay [4] (setting [13]) stood at 14.4 ± 2.6 µM; in assay [5] (setting [13]), 8.5 ± 0.6 µM; in assay [6] (setting [13]), 12.5 ± 1.7 µM. Moreover, the “effect of pH on affinity for 1-NPN (in words)” value in assay [4] (setting [14]), in assay [5] (setting [14]) and in assay [6] (setting [14]) was “rapid loss of affinity in acidic conditions” throughout.

For `CC/C=C\CCO` [(Z)-3-Hexen-1-ol, (Z)-3-hexen-1-ol], the activity at 16 µM in assay [1] (pH 7.4, read-out: %of max±SE) turned out to be 96.5 ± 1.4%; in assay [2] (pH 7.4, read-out: %of max±SE), 90.8 ± 0.6%; in assay [3] (pH 7.4, read-out: %of max±SE), 94.6 ± 0.2%.

Take `CC1=CCC2C(C1)C2(C)C` (single isomer, unassigned; (+)) [(+)-3-Carene, (+)-3-carene]: the “%of max±SE” value is reported as “Abnormal” in assay [1] (setting [10]), 84.3±0.9% in assay [2] (setting [12]) and 85.3±1.7% in assay [3] (setting [11]). The “abnormal fluorescence binding curve (in words)” value in assay [1] (DtabGOBP1) was “increased 1-NPN fluorescence”.

With `C=CC(C)(O)CCC=C(C)C` (stereo not shown) [Linalool, linalool], the activity at 16 µM in assay [1] (setting [7]) turned out to be 90.4 ± 0.9%; in assay [2] (setting [8]) it was 95.2 ± 0.6%; in assay [3] (setting [9]), 90.4 ± 0.7%.

Consider `CC1=CCC(=C(C)C)CC1` [Terpinolene, terpinolene], for which the activity at 16 µM was determined as 100 ± 3.2% in assay [1] (setting [7]), 85.3 ± 1.8% in assay [2] (setting [8]) and 90.3 ± 0.2% in assay [3] (setting [9]).

Consider `CC1=CC=C(C(C)C)CC1` [α-Terpinene, α-terpinene], for which the activity at 16 µM came to 81.8 ± 1.3% in assay [1] (pH 7.4, read-out: %of max±SE); 93.2 ± 0.9% in assay [2] (pH 7.4, read-out: %of max±SE); 86.7 ± 0.7% in assay [3] (pH 7.4, read-out: %of max±SE).

Turning to `C=C(C)C1CC=C(C)CC1` (single isomer, unassigned; (+)) [(+)-Limonene, (+)-limonene], the results for the “%of max±SE” value in assay [1] (setting [10]), in assay [2] (setting [12]) and in assay [3] (setting [11]) were 78.2±1.1%, 88.0±1.3% and 94.4±0.4%, respectively.

With `CC1=CCC(C(C)C)=CC1` [γ-Terpinene, γ-terpinene], the inhibition at 16 µM in assay [1] (pH 7.4, read-out: 1-NPN displaced) came out at 30%. The activity at 16 µM amounted to 71.8 ± 0.7% in assay [1] (pH 7.4, read-out: %of max±SE); 99.3 ± 0.4% in assay [2] (pH 7.4, read-out: %of max±SE); 88.1 ± 0.3% in assay [3] (pH 7.4, read-out: %of max±SE).

For `CC1=CCC2CC1C2(C)C` (stereo not drawn) [(-)-α-Pinene, (−)-α-pinene], the “%of max±SE” value in assay [1] (setting [10]) is listed as 96.4±0.3%; in assay [2] (setting [12]), 90.8±0.4%; in assay [3] (setting [11]) it was 85.4±0.4%.

Consider `CCCC/C=C/C=C\CCCCOC(=O)CC` [Z5,E7-12:OPr, (5Z,7E)-5,7-dodecadien-1-yl propionate], for which the Ki was determined as 1.9 µM in assay [1] (DtabGOBP1), 2.7 µM in assay [2] (DtabGOBP2) and 3.61 µM in assay [3] (DtabPBP1). For the same compound, the “binding affinity / displacement of 1-NPN (in words)” value in assay [1] (DtabGOBP1), in assay [2] (DtabGOBP2) and in assay [3] (DtabPBP1) was “high binding affinities” in each case. Also, the results for the activity at 16 µM in assay [1] (setting [7]), in assay [2] (setting [8]) and in assay [3] (setting [9]) were 37.1 ± 0.5%, 44.8 ± 0.7% and 44.5 ± 0.6%, respectively. Besides, the Kd in assay [1] (DtabGOBP1, calculated from IC50 of 1-NPN displacement, read-out: KD±SE) was 1.9 ± 0.2 µM; in assay [2] (DtabGOBP2, calculated from IC50 of 1-NPN displacement, read-out: KD±SE), 2.7 ± 0.3 µM; in assay [3] (DtabPBP1, calculated from IC50 of 1-NPN displacement, read-out: KD±SE), 3.6 ± 0.3 µM.

Regarding `C=CC(=C)CCC=C(C)C` [β-Myrene, β-myrene], the “%of max±SE” value came to 67.8±0.8% in assay [1] (setting [10]), 83.3±0.7% in assay [2] (setting [12]) and 86.5±0.8% in assay [3] (setting [11]). In addition, the 1-NPN displaced in assay [1] (DtabGOBP1, at a max concentration of ligand) worked out at 30%.

Regarding `CCCC/C=C/C=C\CCCCO` [Z5,E7-12:OH, (5Z,7E)-5,7-dodecadien-1-ol], the results for the activity at 16 µM in assay [1] (setting [7]), in assay [2] (setting [8]) and in assay [3] (setting [9]) were 81 ± 1%, 65.6 ± 0.8% and 74.5 ± 0.6%, respectively.
